Measured values published in US6676932B2, “Ultraviolet absorbent, photostabilizer, ultraviolet ray-absorbing composition, photostabilized composition and external preparation for skin” (Shiseido Co., Ltd., priority 2001, dated 2004).

Tests used:
[1] = tested on: skin; assay: Test of skin irritation: continuous application test (Test Example 3 i); assay type: in vivo, human; conditions: 10 wt % ultraviolet absorbent, twice daily for 4 weeks
Method: The same samples as in the Test Example 2 were used (at a 10 wt % amount of an ultraviolet absorbent).
Continuous application test was carried out for 20 healthy subjects per one group. An appropriate amount of each of the samples was coated twice daily for 4 weeks. The effects were assessed according to the following assessment standards.
Mean score was calculated for the determination of the effect on the basis of the following standards.
◯: mean score of more than 0 to less than 1.
Δ: mean score of 1 or more to less than 2.
x: mean score of 2 or more.

[2] = Dye stabilization effect under daylight exposure (Test Examples 6-91); assay type: physicochemical; design: key to Δ E: color difference ΔE in Lab vs. color before daylight exposure; key to Appearance (visual determination): ◯: no change; Δ: almost no change; x: change; conditions: photostabilizer 0.05 wt %, daylight exposure (80 MJ)
Outline: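 Test samples exposed to daylight to 80 MJ; appearance judged visually. Colour measured by spectrophotometer in Lab coordinates, with ΔE calculated relative to pre-exposure values (L1, a1, b1).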

[3] = dye Blue 1 (Brilliant Blue FCF) 0.0001 wt %
[4] = dye Green 3 (Fast Green FCF) 0.001 wt %
[5] = dye Red 227 (Acid Fuchsine D) 0.0001 wt %
[6] = dye Yellow 5 (Sunset Yellow FCF) 0.001 wt %
[7] = dyes Red 106 (Acid red) 0.00001 + Yellow 203 (Quinoline Yellow WS) 0.0001 wt %
[8] = dyes Red 213 (Rhodamine B) 0.00001 + Blue 1 (Brilliant Blue FCF) 0.00001 wt %
[9] = dyes Red 401 (Violanin R) 0.0001 + Blue 1 (Brilliant Blue FCF) 0.00001 wt %
[10] = dyes Red 227 (Acid Fuchsine D) 0.0001 + Yellow 5 (Sunset Yellow FCF) 0.0001 wt %

| Compound | Determination (skin reaction, continuous application test) ([1]; cream) | Determination (skin reaction, continuous application test) ([1]; lotion) | Appearance (visual determination) [2, 3] | Δ E [2, 3] | Appearance (visual determination) [2, 4] | Δ E [2, 4] | Appearance (visual determination) [2, 5] | Δ E [2, 5] | Appearance (visual determination) [2, 6] | Δ E [2, 6] | Appearance (visual determination) [2, 7] | Δ E [2, 7] | Appearance (visual determination) [2, 8] | Δ E [2, 8] | Appearance (visual determination) [2, 9] | Δ E [2, 9] | Appearance (visual determination) [2, 10] | Δ E [2, 10] |
| --- | --- | --- | --- | --- | --- | --- | --- | --- | --- | --- | --- | --- | --- | --- | --- | --- | --- | --- |
| Oc1cc(N2CCOCC2)cnn1 [3-Hydroxy-5-morpholinopyridazine, 3-hydroxy-5-morpholinopyridazine] | ⊚ (mean score of 0) | ⊚ (mean score of 0) | ◯ | 1.31 | ◯ | 0.48 | ◯ | 0.52 | ◯ | 0.52 | ◯ | 0.85 | ◯ | 1.08 | ◯ | 0.44 | – | – |
| Oc1nncc(N2CCCCC2)c1N1CCCCC1 [4,5-Dipiperidino-3-hydroxypyridazine] | ⊚ (mean score of 0) | ⊚ (mean score of 0) | ◯ | 1.22 | ◯ | 0.45 | ◯ | 0.53 | ◯ | 0.55 | – | – | ◯ | 1.11 | ◯ | 0.38 | ◯ | 0.63 |
